In ChEMBL document CHEMBL1201862, “PubChem BioAssay data set” (2004):
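1) Cells in 96-well plates. 2) Compound, 48 h, 5 concentrations. 3) Linear interpolation between surrounding doses. 4) Unreached endpoint = highest concentration. GI50 is the concentration that inhibits growth by half.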 The source made the active and inactive calls. Cut-off read from the data, not from the text of the source: active = GI50 up to about 1.1 µM and inactive = higher.

Experiments:
Assay in all cases: inhibition of tumour cell growth, NCI panel, 48 h
[1] = test system: HOP-92
[2] = test system: NCI-H226
[3] = test system: HOP-18
[4] = test system: SF-295
[5] = test system: Malme-3M
[6] = test system: DLD-1
[7] = test system: RPMI-8226
[8] = test system: HOP-62
[9] = test system: HT-29
[10] = test system: KM-20L2
[11] = test system: OVCAR-4
[12] = test system: MOLT-4
[13] = test system: HL-60
[14] = test system: ACHN
[15] = test system: NCI-H522
[16] = test system: SNB-78
[17] = test system: LOX IMVI
[18] = test system: UACC-62
[19] = test system: A549
[20] = test system: NCI-H23
[21] = test system: SK-OV-3
[22] = test system: M19-MEL
[23] = test system: 786-0
[24] = test system: UO-31
[25] = test system: HCC 2998
[26] = test system: SNB-19
[27] = test system: OVCAR-5
[28] = test system: DMS-273
[29] = test system: SK-MEL-5
[30] = test system: A498
[31] = test system: SK-MEL-28
[32] = test system: CCRF-CEM
[33] = test system: SW-620
[34] = test system: DMS-114
[35] = test system: COLO 205
[36] = test system: SF-539
[37] = test system: KM12
[38] = test system: SK-MEL-2
[39] = test system: RXF 393
[40] = test system: SN12C
[41] = test system: LXFL 529
[42] = test system: TK-10
[43] = test system: HCT-15
[44] = test system: HCT-116
[45] = test system: OVCAR-3
[46] = test system: EKVX
[47] = test system: SNB-75
[48] = test system: NCI-H460
[49] = test system: M14
[50] = test system: SR
[51] = test system: CAKI-1
[52] = test system: UACC-257
[53] = test system: U-251
[54] = test system: K562
[55] = test system: SF-268
[56] = test system: OVCAR-8
[57] = test system: IGROV-1

Structure (SMILES): Cc1cccc(C(C)C)c1NC(=O)CCl
- GI50 [1]: 28.6 µM (inactive)
- GI50 [2]: > 100 µM (inactive)
- GI50 [3]: 53.7 µM (inactive)
- GI50 [4]: 92 µM (inactive)
- GI50 [5]: 81.7 µM (inactive)
- GI50 [6]: 65 µM (inactive)
- GI50 [7]: 86.7 µM (inactive)
- GI50 [8]: 41.9 µM (inactive)
- GI50 [9]: 49.1 µM (inactive)
- GI50 [10]: 45.4 µM (inactive)
- GI50 [11]: 29.4 µM (inactive)
- GI50 [12]: 63.7 µM (inactive)
- GI50 [13]: 39.9 µM (inactive)
- GI50 [14]: 73.3 µM (inactive)
- GI50 [15]: 15.3 µM (inactive)
- GI50 [16]: 48.9 µM (inactive)
- GI50 [17]: 37.1 µM (inactive)
- GI50 [18]: 24.4 µM (inactive)
- GI50 [19]: > 100 µM (inactive)
- GI50 [20]: 22.9 µM (inactive)
- GI50 [21]: 67.8 µM (inactive)
- GI50 [22]: 51.6 µM (inactive)
- GI50 [23]: 53.8 µM (inactive)
- GI50 [24]: > 100 µM (inactive)
- GI50 [25]: 29.6 µM (inactive)
- GI50 [26]: 36.5 µM (inactive)
- GI50 [27]: > 100 µM (inactive)
- GI50 [28]: 69.2 µM (inactive)
- GI50 [29]: 91.4 µM (inactive)
- GI50 [30]: > 100 µM (inactive)
- GI50 [31]: > 100 µM (inactive)
- GI50 [32]: 30.5 µM (inactive)
- GI50 [33]: 39.6 µM (inactive)
- GI50 [34]: 20.8 µM (inactive)
- GI50 [35]: 86.9 µM (inactive)
- GI50 [36]: > 100 µM (inactive)
- GI50 [37]: 55.7 µM (inactive)
- GI50 [38]: 75.5 µM (inactive)
- GI50 [39]: 25.2 µM (inactive)
- GI50 [40]: 56.2 µM (inactive)
- GI50 [41]: 76.7 µM (inactive)
- GI50 [42]: > 10 µM (inactive)
- GI50 [43]: 90.4 µM
- GI50 [44]: 50.2 µM (inactive)
- GI50 [45]: 19.1 µM (inactive)
- GI50 [46]: 20.6 µM (inactive)
- GI50 [47]: 33.7 µM (inactive)
- GI50 [48]: 64.6 µM (inactive)
- GI50 [49]: 65.8 µM (inactive)
- GI50 [50]: 47.8 µM (inactive)
- GI50 [51]: 27.9 µM (inactive)
- GI50 [52]: > 100 µM (inactive)
- GI50 [53]: 40.7 µM (inactive)
- GI50 [54]: 56.2 µM (inactive)
- GI50 [55]: 38 µM (inactive)

Structure (SMILES): Cn1c(O)c(C(=O)Nc2cccs2)c(=O)[nH]c1=S
- GI50 [1]: 12.6 µM (inactive)
- GI50 [2]: 14.5 µM (inactive)
- GI50 [3]: 0.0865 µM (active)
- GI50 [4]: 15.5 µM (inactive)
- GI50 [5]: 16.1 µM (inactive)
- GI50 [6]: 21.2 µM (inactive)
- GI50 [7]: 19.5 µM (inactive)
- GI50 [8]: 17.4 µM (inactive)
- GI50 [9]: 18.2 µM (inactive)
- GI50 [10]: 19.7 µM (inactive)
- GI50 [56]: 14 µM (inactive)
- GI50 [11]: 22.5 µM (inactive)
- GI50 [12]: 24.7 µM (inactive)
- GI50 [13]: 78.9 µM (inactive)
- GI50 [14]: 12.9 µM (inactive)
- GI50 [57]: 18.2 µM (inactive)
- GI50 [15]: 13.5 µM (inactive)
- GI50 [16]: 18.9 µM (inactive)
- GI50 [17]: 15.7 µM (inactive)
- GI50 [18]: 14.1 µM (inactive)
- GI50 [19]: 19.4 µM (inactive)
- GI50 [20]: 14.5 µM (inactive)
- GI50 [21]: 16 µM (inactive)
- GI50 [22]: 19.1 µM (inactive)
- GI50 [23]: 20.2 µM (inactive)
- GI50 [24]: 12.2 µM (inactive)
- GI50 [26]: 28.9 µM (inactive)
- GI50 [27]: 28.6 µM (inactive)
- GI50 [29]: 13.6 µM (inactive)
- GI50 [30]: 19.9 µM (inactive)
- GI50 [31]: 15.1 µM (inactive)
- GI50 [32]: 39 µM (inactive)
- GI50 [33]: 26.2 µM (inactive)
- GI50 [34]: 14.5 µM (inactive)
- GI50 [35]: 16.6 µM (inactive)
- GI50 [36]: 16.5 µM (inactive)
- GI50 [37]: 17.9 µM (inactive)
- GI50 [38]: 16.4 µM (inactive)
- GI50 [40]: 17.7 µM (inactive)
- GI50 [41]: 12.1 µM (inactive)
- GI50 [42]: 31 µM (inactive)
- GI50 [43]: 12.7 µM
- GI50 [44]: 13.4 µM (inactive)
- GI50 [45]: 19.9 µM (inactive)
- GI50 [47]: 16.9 µM (inactive)
- GI50 [48]: 19.4 µM (inactive)
- GI50 [49]: 23.1 µM (inactive)
- GI50 [51]: 13 µM (inactive)
- GI50 [52]: 15.4 µM (inactive)
- GI50 [53]: 14.8 µM (inactive)
- GI50 [54]: 51.9 µM (inactive)
- GI50 [55]: 18.8 µM (inactive)
